Where two headings read alike, the source gives them in different places.
Key:
[1] = system: HeLa cell line (cervical cancer); assay: Cell culture cytotoxicity assay (EZ4U/MTT), compounds alone and combined with hydrogen peroxide; conditions: for Effect (H2O2 + PARP inhibitor combo) / Combination index (CI): Hela; for Combination index (CI): CompuSyn; for Combination index (CI) with H2O2, as stated in text: different concentrations of H2O2 and inhibitor, Hela cells
Description: The cytotoxicity of the compounds and their combinations with a DNA damaging agent were examined against human cells from the HeLa cell line (cervical cancer) using an EZ4U/MTT colorimetric test (Biomedica, Vienna, Austria). […] The cells were grown in 96-well plates in DMEM medium (Gibco, Thermo Fisher Scientific, Waltham, MA, USA), with 1x GlutaMAX (Gibco, Thermo Fisher Scientific, Waltham, MA, USA), 50 IU/mL penicillin, 50 μg/mL streptomycin (MP Biome-dicals, Santa Ana, CA, USA), and in the presence of 10% fetal bovine serum (Biolot, Saint Petersburg, Russia) in a 5% CO2 atmosphere. After the formation of a 30–50% monolayer, the tested compounds were added to the medium to final concentrations specified in Figure 2 and Figure S4, and the cell culture was monitored for 3 days. […] The combination index (CI) values were calculated using CompuSyn software version 1.0.

PARP1 [2] = target: T1, PARP1 (Homo sapiens, UniProt P09874); assay: PARP1 autopoly(ADP-ribosyl)ation (autoPARylation) enzyme assay with [32P]NAD+; format: biochemical
T1 construct: made in house; host or cells: insect cells
Description: (§1) Human recombinant poly(ADP-ribose) polymerase 1 (PARP1) and murine poly(ADP-ribose) polymerase 2 (PARP2) were expressed in insect cells and purified as previously described. Radioactively labeled [^32P]NAD^+ was synthesized from [α-^32P]ATP, according to the previously developed method. The reaction of autopoly(ADP-ribosyl)ation was performed as follows. For PARP1, the reaction mixture contained 50 mM of Tris-HCl, a pH of 8.0, 10 mM of MgCl2, 150 mM of NaCl, 7 mM of β-mercaptoethanol, 2 A260/mL of activated DNA, 0.3 mM of [^32P]NAD^+, and 1 of the tested compounds. The reaction was initiated by adding PARP1 up to 200 nM, and the reaction mixtures were incubated at 37 °C for 2 min. For PARP2, the reaction mixture contained 50 mM of Tris-HCl, a pH of 8.0, 3 mM of spermine, 150 mM of NaCl, 7 mM of β-mercaptoethanol, 2 A260/mL of activated DNA, 0.6 mM of [^32P]NAD^+, and 1 of the tested compounds. The reaction was initiated by adding PARP2 up to 800 nM, and the reaction mixtures were incubated at 37 °C for 5 min. The tested compounds were added at six fixed concentrations, specified for each of them. The reaction was stopped by dropping 10 µL aliquots onto Whatman 1 filter papers soaked in 5% trichloroacetic acid (TCA). The filters were washed 4 times with 150 mL of 5% TCA and dried in the air after the removal of TCA with 90% ethanol. The introduction of radioactivity into the reaction product was quantified using a Typhoon FLA 9500 imager (GE Healthcare, Chicago, IL, USA). The half-maximal inhibitory concentration (IC50) values were determined using a six-point concentration response curve in three independent experiments.

PARP1 [3] = target: T1, PARP1; assay: Steady-state kinetic analysis of the PARP1 enzymatic reaction; format: biochemical; conditions: for Type of inhibition: Vmax decreased, KM increased
Description: The four efficient inhibitors of PARP1 (compounds 8, 12, 13, and 14) were further examined by detailed kinetic experiments to determine the type of inhibition and the inhibition constants. […] The kinetics experiments of the PARylation reaction were performed at varied concentrations of the NAD^+ substrate and three–four different fixed concentrations of the inhibitor. The kinetic parameters of the reaction (Vmax and KM) were calculated by fitting the Michaelis–Menten equation to the kinetic data. The type of inhibition was determined by analyzing the dependences of Vmax and KM on the concentration of the inhibitor in linearizing coordinates (Figure S3). All the compounds had decreased Vmax and increased KM values as the inhibitor concentration increased (panels A−E), indicating a mixed type of inhibition, which was further evidenced by the double reciprocal plots of kinetic data (panel F). From these experiments, the inhibition constants reflecting the affinity of inhibitors to the NAD^+ binding pocket of free enzymes were determined (Table 2).
To determine the apparent maximum rate of enzymatic reaction (Vmax), Michaelis constant (KM), and possible inhibition mechanism, steady-state kinetic experiments were performed at […] fixed concentrations of the substrate, in the absence and presence of different fixed concentrations of the inhibitor. The standard reaction mixtures (10 μL) contained 100 μM, 300 μM, 500 μM, 1 mM, or 2 mM NAD^+; a tested PARP1/PARP2 inhibitor specified for each compound (Figure S3); the recombinant human enzyme PARP1 (200 nM) or murine PARP2 (800 nM); and reaction buffer components (specified in the previous subsection). The reaction was performed as described in the previous subsection. The raw data (kinetic curves) were obtained in three independent experiments and statistically processed with OriginPro 8.6.0 software. […]
F) Graphical representation in double reciprocal plots. The inhibitor concentrations (µM) are indicated right to each panel.
Figure S3. Graphical representation of inhibition type determination for PARP1 and PARP2 with selected compounds.
The Ki and Ki(2) values presented in Table 2 in the main text and Table S1 were calculated using the equations:
Ki = Ci⁄ Ki (2) = CiV Vmax ∗ൗ−1
ቂ(Vmax Km )൘ቃ(Vmax ∗ Km ∗)⁄ −1 where Vmax (Vmax*) – maximal reaction velocity in th e absence (presence) of inhibitor; Km (Km*) – Michaelis constant in the absence (presence) of inhibitor; Ci – the inhibitor concentration.
(also on this page, place not known: Ci )⁄ (Vmax ∗ )⁄൘ቃ − Ki(2) Ci V ∗ൗ− 1 the Vmax KM 3000 0 1 0 250 [ 32 P]ADP-ribose, counts x 10 -3 NAD + ,)
(1 picture or pasted object on this page, not shown here)

PARP2 = target: T2, PARP2 (Mus musculus, UniProt O88554); assay: PARP2 autopoly(ADP-ribosyl)ation (autoPARylation) enzyme assay with [32P]NAD+; format: biochemical, murine
T2 construct: made in house; host or cells: insect cells
Description: as §1

[4] = H2O2 150 μM + inhibitor 1000 μM
[5] = H2O2 250 μM + inhibitor 1000 μM
[6] = mixed-type inhibition, read-out: Ki (affinity for the free enzyme)
[7] = read-out: Ki(2) (affinity for the enzyme complex with NAD+ substrate)

T1 sequence (P09874 whole entry): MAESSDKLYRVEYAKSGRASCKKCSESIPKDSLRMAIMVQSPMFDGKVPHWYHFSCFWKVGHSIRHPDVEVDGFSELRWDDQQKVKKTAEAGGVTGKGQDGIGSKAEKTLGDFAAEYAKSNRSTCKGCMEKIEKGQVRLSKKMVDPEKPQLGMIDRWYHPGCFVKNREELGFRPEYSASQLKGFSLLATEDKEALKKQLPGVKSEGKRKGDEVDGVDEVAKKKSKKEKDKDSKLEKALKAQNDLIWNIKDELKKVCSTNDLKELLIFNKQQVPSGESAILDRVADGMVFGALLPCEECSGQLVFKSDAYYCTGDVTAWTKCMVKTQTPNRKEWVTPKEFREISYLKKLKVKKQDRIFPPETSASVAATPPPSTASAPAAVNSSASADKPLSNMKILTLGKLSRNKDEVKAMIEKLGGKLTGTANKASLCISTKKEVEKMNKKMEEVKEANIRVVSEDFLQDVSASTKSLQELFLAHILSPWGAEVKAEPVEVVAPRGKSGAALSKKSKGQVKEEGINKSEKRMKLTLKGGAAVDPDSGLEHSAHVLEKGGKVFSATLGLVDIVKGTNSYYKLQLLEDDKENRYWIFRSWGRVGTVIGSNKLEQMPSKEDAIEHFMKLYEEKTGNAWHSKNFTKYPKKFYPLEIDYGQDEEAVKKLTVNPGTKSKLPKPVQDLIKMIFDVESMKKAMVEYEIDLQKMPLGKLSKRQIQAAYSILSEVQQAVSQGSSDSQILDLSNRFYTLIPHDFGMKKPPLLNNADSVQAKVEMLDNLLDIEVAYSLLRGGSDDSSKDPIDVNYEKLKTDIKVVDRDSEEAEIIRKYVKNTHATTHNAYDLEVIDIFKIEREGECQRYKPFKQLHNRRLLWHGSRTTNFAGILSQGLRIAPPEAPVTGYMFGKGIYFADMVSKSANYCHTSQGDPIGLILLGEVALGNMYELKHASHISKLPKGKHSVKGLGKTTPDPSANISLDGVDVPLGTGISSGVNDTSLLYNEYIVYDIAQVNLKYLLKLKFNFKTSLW
T2 sequence (O88554 whole entry): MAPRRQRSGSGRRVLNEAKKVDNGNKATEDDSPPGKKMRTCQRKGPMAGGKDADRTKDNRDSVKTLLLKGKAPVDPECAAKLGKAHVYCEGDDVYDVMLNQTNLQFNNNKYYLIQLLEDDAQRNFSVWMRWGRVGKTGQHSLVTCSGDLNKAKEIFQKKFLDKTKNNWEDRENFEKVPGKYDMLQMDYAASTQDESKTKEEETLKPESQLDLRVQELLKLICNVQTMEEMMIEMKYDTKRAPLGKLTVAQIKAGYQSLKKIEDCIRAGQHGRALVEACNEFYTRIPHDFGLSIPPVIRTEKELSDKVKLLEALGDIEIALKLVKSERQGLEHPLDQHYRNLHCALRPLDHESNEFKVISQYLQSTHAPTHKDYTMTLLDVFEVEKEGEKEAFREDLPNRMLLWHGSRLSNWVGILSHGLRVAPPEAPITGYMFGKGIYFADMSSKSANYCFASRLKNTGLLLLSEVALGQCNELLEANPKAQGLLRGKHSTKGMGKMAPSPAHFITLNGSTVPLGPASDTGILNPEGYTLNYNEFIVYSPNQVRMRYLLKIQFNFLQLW

SMILES: Cc1cn([C@H]2CNC[C@@H](CN)O2)c(=O)[nH]c1=O [Compound 8]
- Effect (H2O2 + PARP inhibitor combo) ([1]; H2O2 30 μM + inhibitor 100 μM): 0.15
- Combination index (CI) ([1]; H2O2 30 μM + inhibitor 100 μM): 2.596
- Effect (H2O2 + PARP inhibitor combo) ([1]; H2O2 30 μM + inhibitor 1000 μM): 0.46
- Combination index (CI) ([1]; H2O2 30 μM + inhibitor 1000 μM): 0.6254
- Effect (H2O2 + PARP inhibitor combo) ([1]; H2O2 50 μM + inhibitor 100 μM): 0.21
- Combination index (CI) ([1]; H2O2 50 μM + inhibitor 100 μM): 1.707
- Effect (H2O2 + PARP inhibitor combo) ([1]; H2O2 50 μM + inhibitor 1000 μM): 0.59
- Combination index (CI) ([1]; H2O2 50 μM + inhibitor 1000 μM): 0.2634
- Effect (H2O2 + PARP inhibitor combo) ([1]; H2O2 90 μM + inhibitor 100 μM): 0.48
- Combination index (CI) ([1]; H2O2 90 μM + inhibitor 100 μM): 0.375
- Effect (H2O2 + PARP inhibitor combo) ([1]; H2O2 90 μM + inhibitor 1000 μM): 0.68
- Combination index (CI) ([1]; H2O2 90 μM + inhibitor 1000 μM): 0.1724
- Effect (H2O2 + PARP inhibitor combo) ([1]; H2O2 150 μM + inhibitor 100 μM): 0.61
- Combination index (CI) ([1]; H2O2 150 μM + inhibitor 100 μM): 0.2716
- Effect (H2O2 + PARP inhibitor combo) [1, 4]: 0.79
- Combination index (CI) [1, 4]: 0.09406
- Effect (H2O2 + PARP inhibitor combo) ([1]; H2O2 250 μM + inhibitor 100 μM): 0.94
- Combination index (CI) ([1]; H2O2 250 μM + inhibitor 100 μM): 0.01519
- Effect (H2O2 + PARP inhibitor combo) [1, 5]: 0.92
- Combination index (CI) [1, 5]: 0.02575
- Combination index (CI) with H2O2, as stated in text [1]: less than one
- IC50 (PARP1 [2]): 10 ± 3 µM
- Type of inhibition (PARP1 [3]): mixed-type inhibition
- Ki (PARP1 [3]; [6]): 12 ± 2 µM
- Ki (PARP1 [3]; [7]): 40 ± 8 µM
- IC50 (PARP2): 133 ± 8 µM

SMILES: NC[C@@H]1CNC[C@H](n2cc(I)c(=O)[nH]c2=O)O1 [Compound 14]
- Effect (H2O2 + PARP inhibitor combo) ([1]; H2O2 30 μM + inhibitor 100 μM): 0.46
- Combination index (CI) ([1]; H2O2 30 μM + inhibitor 100 μM): 0.6331
- Effect (H2O2 + PARP inhibitor combo) ([1]; H2O2 30 μM + inhibitor 1000 μM): 0.3
- Combination index (CI) ([1]; H2O2 30 μM + inhibitor 1000 μM): 0.3003
- Effect (H2O2 + PARP inhibitor combo) ([1]; H2O2 50 μM + inhibitor 100 μM): 0.47
- Combination index (CI) ([1]; H2O2 50 μM + inhibitor 100 μM): 0.5789
- Effect (H2O2 + PARP inhibitor combo) ([1]; H2O2 50 μM + inhibitor 1000 μM): 0.32
- Combination index (CI) ([1]; H2O2 50 μM + inhibitor 1000 μM): 0.2452
- Effect (H2O2 + PARP inhibitor combo) ([1]; H2O2 90 μM + inhibitor 100 μM): 0.6
- Combination index (CI) ([1]; H2O2 90 μM + inhibitor 100 μM): 0.1778
- Effect (H2O2 + PARP inhibitor combo) ([1]; H2O2 90 μM + inhibitor 1000 μM): 0.5
- Combination index (CI) ([1]; H2O2 90 μM + inhibitor 1000 μM): 0.04618
- Effect (H2O2 + PARP inhibitor combo) ([1]; H2O2 150 μM + inhibitor 100 μM): 0.68
- Combination index (CI) ([1]; H2O2 150 μM + inhibitor 100 μM): 0.08158
- Effect (H2O2 + PARP inhibitor combo) [1, 4]: 0.61
- Combination index (CI) [1, 4]: 0.01767
- Effect (H2O2 + PARP inhibitor combo) ([1]; H2O2 250 μM + inhibitor 100 μM): 0.82
- Combination index (CI) ([1]; H2O2 250 μM + inhibitor 100 μM): 0.01487
- Effect (H2O2 + PARP inhibitor combo) [1, 5]: 0.84
- Combination index (CI) [1, 5]: 0.00135
- Combination index (CI) with H2O2, as stated in text [1]: less than one
- IC50 (PARP1 [2]; 0.3 mM [32P]NAD+, means ±SDs of three independent experiments, read-out: IC50, PARP1 activity in the autoPARylation reaction): 12 ± 2 µM
- Type of inhibition (PARP1 [3]): mixed-type inhibition
- Ki (PARP1 [3]; [6]): 15 ± 3 µM
- Ki (PARP1 [3]; [7]): 50 ± 10 µM
- IC50 (PARP2; 0.6 mM [32P]NAD+, means ±SDs of three independent experiments, read-out: IC50, PARP2 activity in the autoPARylation reaction): 63 ± 9 µM

Reference: PMC11640836, “Aminomethylmorpholino Nucleosides as Novel Inhibitors of PARP1 and PARP2: Experimental and Molecular Modeling Analyses of Their Selectivity and Mechanism of Action” (International Journal of Molecular Sciences, 2024)
